Test results from PubChem BioAssay AID743474 (The Scripps Research Institute Molecular Screening Center, 2014).
Activity calls are given as the source filed them. How the calls were made is not given here.

Test system: CCHF vOTU
Experiment: CCHF vOTU protease inhibitors, late-stage follow-up, biochemical, fluorescence, Ub-R110 substrate (AID 743474)
Details: Recombinant CCHF vOTU, Ub-R110 fluorescence cleavage, stronger effect = higher value

Structure (SMILES): Cc1ccccc1-c1cc2c(nn1)-c1ccccc1C2=O
- inhibition (Assay 1, Ub-R110 substrate, at 2.23 µM): 3.27% (inactive)
- inhibition (Assay 2, Ub-R110 substrate, at 4.46 µM): 15.3% (inactive)

Structure (SMILES): O=C(/C=C/c1ccc(O)cc1)c1ccc(NC2=C(N3CCCCC3)C(=O)c3ccccc3C2=O)cc1
- inhibition (Assay 1, Ub-R110 substrate, at 10.17 µM): 23.2%

Structure (SMILES): Cc1c(Cl)cnc(NC(=O)COC(=O)c2ccc([N+](=O)[O-])s2)c1Cl
- inhibition (Assay 1, Ub-R110 substrate, at 20.44 µM): 40.7%

Structure (SMILES): CC1COCC(C)N1C1=C(Cl)C(=O)c2ccccc2C1=O (stereo not drawn)
- inhibition (Assay 1, Ub-R110 substrate, at 14.67 µM): 31.2%

Structure (SMILES): CCc1cc[n+](C2=C(NS(=O)(=O)c3cccs3)C(=O)c3ccccc3C2=O)cc1
- inhibition (Assay 1, Ub-R110 substrate, at 14.16 µM): 64.3%

Structure (SMILES): O=C(c1ccco1)[C@@H]1[C@@H]2C(=O)N(c3ccc(Br)cc3)C(=O)[C@@H]2C2c3ccccc3C=CN21 (stereo partly drawn)
- inhibition (Assay 1, Ub-R110 substrate, at 11.01 µM): 16.9% (inactive)

Structure (SMILES): COc1cc(NC(=O)COC(=O)c2ccc([N+](=O)[O-])s2)cc(OC)c1OC
- inhibition (Assay 1, Ub-R110 substrate, at 21.72 µM): 15.2% (inactive)

Structure (SMILES): O=C(COC(=O)c1ccc([N+](=O)[O-])s1)NCc1ccc(F)cc1
- inhibition (Assay 1, Ub-R110 substrate, at 40.58 µM): 30.5%

Structure (SMILES): NS(=O)(=O)c1ccc(NC(=O)COC(=O)c2ccc([N+](=O)[O-])s2)cc1
- inhibition (Assay 1, Ub-R110 substrate, at 29.01 µM): 13.3% (inactive)

Structure (SMILES): CC1CCCC(NC(=O)COC(=O)c2ccc([N+](=O)[O-])s2)C1C (stereo not drawn)
- inhibition (Assay 1, Ub-R110 substrate, at 31.32 µM): 14.7% (inactive)

Structure (SMILES): O=C1Cc2ccccc2C(=O)N1CCc1ccccc1
- inhibition (Assay 1, Ub-R110 substrate, at 1.51 µM): 3.44% (inactive)
- inhibition (Assay 2, Ub-R110 substrate, at 3.02 µM): 10.7% (inactive)

Structure (SMILES): CCOC(=O)N=Nc1c2ccccc2c2nc3no[nH]c3nc12
- inhibition (Assay 1, Ub-R110 substrate, at 7.75 µM): 33.2%

Structure (SMILES): O=C1Cc2ccccc2C(=O)N1Cc1ccccc1
- inhibition (Assay 1, Ub-R110 substrate, at 1.31 µM): 49.5%

Structure (SMILES): Cc1ccc(N2C(=O)[C@@H]3[C@H](C2=O)C2c4ccccc4C=CN2[C@@H]3C(=O)c2ccco2)cc1 (stereo partly drawn)
- inhibition (Assay 1, Ub-R110 substrate, at 5.2 µM): 33.9%

Structure (SMILES): O=C1C=C(Nc2ccccc2)c2ccccc2C1=O
- inhibition (Assay 1, Ub-R110 substrate, at 15.55 µM): 21.8%

Structure (SMILES): Cn1nc(-c2ccccn2)nc2c(=O)n(C)c(=O)nc1-2
- inhibition (Assay 1, Ub-R110 substrate, at 1.16 µM): 97.3%

Structure (SMILES): COC1=C(N)C(=O)c2nc(C)ccc2C1=O
- inhibition (Assay 1, Ub-R110 substrate, at 4.98 µM): 16.6% (inactive)

Structure (SMILES): COc1ccc2noc3c2c1C(=O)c1ccccc1-3
- inhibition (Assay 1, Ub-R110 substrate, at 6.28 µM): 22.7%

Structure (SMILES): CCn1nc(/C=C/c2ccccc2)nc2c(=O)n(C)c(=O)nc1-2
- inhibition (Assay 1, Ub-R110 substrate, at 0.49 µM): 98%

Structure (SMILES): O=C(NC1=C(NC2CCS(=O)(=O)C2)C(=O)c2ccccc2C1=O)c1ccccc1 (stereo not drawn)
- inhibition (Assay 1, Ub-R110 substrate, at 14.2 µM): 49.8%

Structure (SMILES): O=C(O)CSc1cc(NS(=O)(=O)c2cccc([N+](=O)[O-])c2)c2ccccc2c1O
- inhibition (Assay 1, Ub-R110 substrate, at 7.61 µM): 0.5% (inactive)

Structure (SMILES): O=S(=O)(Nc1cc2nc3ccccc3nc2n1Cc1ccccc1)c1ccc(Cl)cc1
- inhibition (Assay 1, Ub-R110 substrate, at 7.6 µM): 5% (inactive)

Structure (SMILES): O=C1Cc2ccccc2C(=O)N1
- inhibition (Assay 1, Ub-R110 substrate, at 0.6 µM): 57.9%

Structure (SMILES): CCC(CNc1cc(OC)cc2cccnc12)NC1CCCCC1 (stereo not drawn)
- inhibition (Assay 1, Ub-R110 substrate, at 6.96 µM): 3.8% (inactive)

Structure (SMILES): O=C(COC(=O)c1ccc([N+](=O)[O-])s1)Nc1ncc(C(F)(F)F)cc1Cl
- inhibition (Assay 1, Ub-R110 substrate, concentration not given here): 41.1%

Structure (SMILES): O=C1OC(Nc2cc(Br)cc3cccnc23)c2ccccc21 (stereo not drawn)
- inhibition (Assay 1, Ub-R110 substrate, at 5.44 µM): 6% (inactive)

Structure (SMILES): O=c1[nH]c(Nc2ccccc2)cc2cc(Br)ccc12
- inhibition (Assay 1, Ub-R110 substrate, at 1.45 µM): 19.9% (inactive)

Structure (SMILES): Cc1ccc2c(c1C)-c1c(ccc(C)c1C)C(=O)C2=O
- inhibition (Assay 1, Ub-R110 substrate, at 18.9 µM): 62.5%

Structure (SMILES): CC1(C)C=C2C(=NN(c3ccccc3)C(N)=C2C#N)CO1
- inhibition (Assay 1, Ub-R110 substrate, at 23.49 µM): 22.2%

Structure (SMILES): COC(CNC(=O)c1ccc2c3c(onc13)-c1ccccc1C2=O)OC
- inhibition (Assay 1, Ub-R110 substrate, at 24.19 µM): 52.5%

Structure (SMILES): CC(=O)c1ccc(NC(=S)Nc2cccc3cnccc23)cc1
- inhibition (Assay 1, Ub-R110 substrate, at 7.69 µM): 4.4% (inactive)

Structure (SMILES): NS(=O)(=O)c1ccc(NC2=CC(=O)C(=O)c3ccccc32)cc1
- inhibition (Assay 1, Ub-R110 substrate, at 11.51 µM): 21.1%

Structure (SMILES): COc1cc(C(=O)c2nccc3cc(OC)c(OC)cc23)c([N+](=O)[O-])cc1OC
- inhibition (Assay 1, Ub-R110 substrate, at 4.04 µM): 0.3% (inactive)

Structure (SMILES): COc1cc(Br)c(C(=O)c2nccc3cc(OC)c(OC)cc23)cc1OC
- inhibition (Assay 1, Ub-R110 substrate, at 1.13 µM): 14.4% (inactive)

Structure (SMILES): O=C(NC1=CC(=O)c2ccccc2C1=O)c1ccccc1
- inhibition (Assay 1, Ub-R110 substrate, at 12.37 µM): 55.6%

Structure (SMILES): O=C(OCc1nnc(-c2ccccc2)o1)c1ccc([N+](=O)[O-])s1
- inhibition (Assay 1, Ub-R110 substrate, at 26.04 µM): 20.8%

Structure (SMILES): Cc1ccc(NC2=CC(=O)C(=O)c3ccccc32)cc1
- inhibition (Assay 1, Ub-R110 substrate, at 12.24 µM): 22.1%

Structure (SMILES): CN(C1=C(NC(=O)c2ccccc2)C(=O)c2ccccc2C1=O)C1CCS(=O)(=O)C1 (stereo not drawn)
- inhibition (Assay 1, Ub-R110 substrate, at 9.59 µM): 4.36% (inactive)
- inhibition (Assay 2, Ub-R110 substrate, at 19.18 µM): 55.5%

Structure (SMILES): COc1ccccc1NC(=O)COC(=O)c1ccc([N+](=O)[O-])s1
- inhibition (Assay 1, Ub-R110 substrate, at 35.07 µM): 26.7%

Structure (SMILES): O=C(COC(=O)c1ccc([N+](=O)[O-])s1)Nc1ccc(F)cc1
- inhibition (Assay 1, Ub-R110 substrate, at 26.34 µM): 21.3%
